The values that follow come from US6737507B2, “Antiangiogenic peptides and compositions thereof” (Children's Medical Center Corporation, priority 1999, dated 2004).

In assay [1] the test system is endothelial cell. Particulars: cited from earlier work.
The subject of assay [2] is microvascular cells. The settings on record: in vitro, amnion invasion assay; cited from earlier work.
Assay [3] has as its system capillary tube formation. The settings on record: in vitro; cited from earlier work.
The test system of assay [4] is capillary endothelial cells (EC). The assay can be described thus: bFGF-stimulated EC proliferation assay. In kind it is cell-based. Particulars: FIG. 1. The source says:
Inhibition of endothelial cell proliferation may be measured by calorimetric determination of cellular acid phosphatase activity or electronic cell counting. These methods provide a quick and sensitive screen for determining the number of endothelial cells in culture after treatment with the connective tissue growth factor protein, derivative, or analog of the invention, and an angiogenesis stimulating factor such as aFGF. The calorimetric determination of cellular acid phosphatase activity is described by Connolly et al., 1986, J. Anal. Biochem. J52:136-140. According to this method, capillary endothelial cells are treated with angiogenesis stimulating factors, such as aFGF, and a range of potential inhibitor concentrations. These samples are incubated to allow for growth, and then harvested, washed, lysed in a buffer containing a phosphatase substrate, and then incubated a second time. A basic solution is added to stop the reaction and color development is determined at […]. According to Connolly et al., a linear relationship is obtained between acid phosphatase activity and endothelial cell number up to 10,000 cells/sample. […] Percent inhibition is determined by comparing the cell number of samples exposed to stimulus with those exposed to both stimulus and inhibitor. […] Following incubation, the cells are harvested and the extent of thymidine incorporation is determined. […]

The test system of assay [5] is neovascularization. The assay is described as follows: CAM assay (chick chorioallantoic membrane), neovascularization in vivo. The text has this:
Assays for the ability to inhibit angiogenesis in vivo include the chick chorioallantoic membrane assay and mouse, rat or rabbit corneal pocket assays. See, Polverini et al., 1991, Methods Enzymol. 198:440-450. In corneal pocket assays, a tumor of choice is implanted into the cornea of the test animal in the form of a corneal pocket. The potential angiogenesis inhibitor is applied to the corneal pocket and the corneal pocket is routinely examined for neovascularization. The purified protein inhibited bFGF-stimulated EC proliferation in the bFGF stimulated EC proliferation assay (Moses, et al., Science, 248:1408-1410 (1990)) (FIG. 1) and inhibited neovascularization in vivo in the CAM assay.

Assay [6] has as its target T1, MMP-1 (Homo sapiens, UniProt P03956).
T1 sequence (P03956 100-469): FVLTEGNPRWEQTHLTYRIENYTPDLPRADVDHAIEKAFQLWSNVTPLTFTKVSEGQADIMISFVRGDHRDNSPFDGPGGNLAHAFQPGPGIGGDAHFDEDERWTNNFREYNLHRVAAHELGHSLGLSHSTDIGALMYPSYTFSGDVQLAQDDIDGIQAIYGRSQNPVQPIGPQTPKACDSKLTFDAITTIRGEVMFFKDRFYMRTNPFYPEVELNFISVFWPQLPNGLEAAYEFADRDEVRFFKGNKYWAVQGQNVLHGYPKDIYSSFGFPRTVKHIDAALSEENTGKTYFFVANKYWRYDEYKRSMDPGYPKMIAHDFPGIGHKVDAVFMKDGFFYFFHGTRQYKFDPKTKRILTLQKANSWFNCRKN
The assay is described as follows: MMP-1 activity assay. It counts as biochemical. Particulars: FIG. 2. The text has this: FIG. 2: MMP-1 activity assay. The purified protein inhibited bFGF-stimulated EC proliferation in the bFGF stimulated EC proliferation assay (Moses, et al., Science, 248:1408-1410 (1990)) (FIG. 1) and inhibited neovascularization in vivo in the CAM assay.

The test system of assay [7] is MMP. The assay is described as follows: standard radiometric enzyme assay for MMP inhibition. It counts as biochemical. As for the experimental part:
After 24 hours, positive colonies were harvested, pooled and re-plated into minimal plates. Since multiple copies of the construct are reported to confer resistance to high levels of GF18 we screened for “jackpot” clones by replica plating in increasing doses of GF18, as high as 4 mg/ml. After four days, approximately five colonies containing multiple copies of the gene were screened for expression levels of TIMP-3 in 5 ml cultures. The two clones showing the highest expression, T3-3 His+Mut^s and T3-A His+Mut^s, were then used to inoculate 500 ml cultures, as was one clone containing pPIC9K vector alone as a control for background expression. Both T3-3 and T3-A produced a prominent protein band at app. […] Highly purified TIMP-3 was obtained by subsequent chromatography on a Progel-TSK G30000SWK HPLC column (Supelco) followed by SDS-PAGE and silver staining. […] Both T3-3 and T3-A were inhibitory when tested in the standard radiometric enzyme assay for MMP inhibition (Moses, M. A., et al., Science 248:1408-1410, (1990) and Moses, M. A., et al., J. Cell Biol. 119:475-482, (1992)).

Regarding “TIMP-1: Tissue Inhibitor of MetalloProteinase 1”, the “inhibition of FGF-stimulated endothelial cell proliferation” value in assay [1] (FGF-stimulated) is reported as “not”. Also, the “effect on growth of EC proliferation” value in assay [1] (other studies) is given as “stimulate”. Besides, in assay [2], the “inhibition of migration of microvascular cells” value is recorded as “could inhibit”.
On to `c1cnc2c(c1)ccc1cccnc12` [1,10-phenanthroline], for which the “inhibition of capillary tube formation” value in assay [3] is listed as “could inhibit”.
For the molecule “CKITRCPMIPCYISSPDECLWMDWVTEKNINGHQAKFFACIKRSDGSCAWYRGA APPKQEFLDIEDP [purified protein]”, the “inhibition of bFGF-stimulated EC proliferation” value in assay [4] is recorded as “inhibited”. For the same molecule, the “inhibition of neovascularization in vivo” value in assay [5] was “inhibited”. Besides, the “inhibition of MMP-1 activity” value in assay [6] is given as “did not inhibit”.

B1: T3-3: full length human TIMP-3 expressed by Pichia pastoris clone T3-3 (protein)
chain: CTCSPSHPQDAFCNSDIVIRAKVVGKKLVKEGPFGTLVYTIKQMKMYRGFTKMPHVQYIHTEASESLCGLKLEVNKYQYLLTGRVYDGKMYTGLCNFVERWDQLTLSQRKGLNYRYHLGCNCKIKSCYYLPCFVTSKNECLWTDMLSNFGYPGYQSKHYACIRQKGGYCSWYRGWAPPDKSIINATDP
In the case of B1, in assay [7], the MMP inhibition result is given as “inhibitory”.

B2: T3-A: full length human TIMP-3 expressed by Pichia pastoris clone T3-A (protein)
chain: B1 chain
For the molecule B2, the MMP inhibition result in assay [7] is “inhibitory”.
